# According to patent US7906501B2, “Pyrrole derivatives with angiotensin II antagonist activity” (Rottapharm S.p.A., priority 2004, dated 2011):
# Key:
# AT1 receptor = biological target: T1, AT1 receptor (Rattus norvegicus, UniProt P25095); assay: Inhibition of [125I]Sar1,Ile8-angiotensin II binding in rat liver membranes; conditions: for IC50: rat liver membranes
# T1 construct: from tissue; host or cells: rat liver membranes
# T1 sequence (P25095 1-359): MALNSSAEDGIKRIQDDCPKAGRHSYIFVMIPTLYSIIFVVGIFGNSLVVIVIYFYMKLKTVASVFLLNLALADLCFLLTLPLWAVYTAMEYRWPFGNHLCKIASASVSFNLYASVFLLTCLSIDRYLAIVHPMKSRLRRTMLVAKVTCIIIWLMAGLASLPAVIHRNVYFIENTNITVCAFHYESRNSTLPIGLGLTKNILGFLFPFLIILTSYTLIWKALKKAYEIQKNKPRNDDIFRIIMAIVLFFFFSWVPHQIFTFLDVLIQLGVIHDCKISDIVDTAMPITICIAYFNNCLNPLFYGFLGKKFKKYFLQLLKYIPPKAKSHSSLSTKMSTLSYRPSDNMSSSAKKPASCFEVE
# Description: Antagonist activity at the AT1 receptor on the part of compounds provided by the invention was assessed as the capacity to inhibit binding of the specific AII agonist to rat liver membranes. The method described by R. S. L. Chang et al., [JPET (1992), 262, 133-38] and M. J. Robertson et al., [Br. J. Pharmacol. (1992), 107, 1173-1180] was used with slight modifications. The concentration of radioligand [[…]]-Sar1, Ile^8-angiotensin II used was 25 pM with a membrane content corresponding to a protein concentration of approx. 25 μg of protein per sample; the incubation time was 180 minutes at 25° C. Separation of the bound from the free was carried out by rapid filtration on GFB Millipore glass fibre filters.
# [1] = test system: spontaneously hypertensive rat (SHR); assay: Reduction in systolic arterial pressure in the SHR rat after I.P. administration; assay type: in vivo; conditions: for Max. effect at 15 mg/kg (% reduction vs. basal): 0-120 min, systolic pressure; for ED15 (0-120 min): sodium salts, doses 5-20 mg/kg, dose giving 15% reduction in average basal systolic pressure, NC = not calculable, effect < 10% at all doses
# [2] = test system: renally hypertensive rat (RHR); assay: Reduction in systolic arterial pressure in the RHR rat after I.P. administration; assay type: in vivo; conditions: for Max. effect at 15 mg/kg (% reduction vs. basal): 0-120 min, systolic pressure; for ED15 (0-120 min): sodium salts, doses 5-20 mg/kg, dose giving 15% reduction in average basal systolic pressure, NC = not calculable, effect < 10% at all doses
# in vitro = conditions: human, Caco-2
# Description: (§1) Gres et al. Pharm.; Res. 15 (1998), pages 726-733].
# (§2) A→B permeability was thus assessed, namely the apparent permeability coefficient (Papp), of the compounds under investigation, tested at a concentration of 50 μM with an incubation time of 60 minutes, in the apical-to-basolateral direction. B→A permeability is reversely assessed, i.e. in a basolateral-to-apical direction, with an incubation time of 40 minutes.
# TC7 cell monolayer = assay: in vitro; conditions: human, Caco-2, 50 μM
# Description: as §1, §2
# [3] = displacement of 25 pM [125I]-Sar1,Ile8-angiotensin II, 180 min at 25° C.
smiles,measurement,setting,value
"CCCc1cc(C(C)C)c(C(=O)O)n1Cc1ccc(-c2ccccc2-c2nnn[nH]2)cc1 [Compound 11, 5-n-Propyl-3-isopropyl-1-[2′-(1H-tetrazol-5-yl)biphenyl-4-yl-methyl]-2-pyrrolecarboxylic acid]",IC50,AT1 receptor; [3],106 nM
same,melting point,,170 °C
"CC(C)CCc1cc(C(C)C)c(C=O)n1Cc1ccc(-c2ccccc2-c2nnn[nH]2)cc1 [Compound 9, 5-[(3-Methyl)butyl]-3-isopropyl-1-[2′-(1H-tetrazol-5-yl)biphenyl-4-yl-methyl]-2-pyrrolaldehyde]",IC50,AT1 receptor; [3],37.2 nM
same,melting point,,144 °C
"CCCc1c(Cl)cc(C=O)n1Cc1ccc(-c2ccccc2-c2nnn[nH]2)cc1 [Compound 4, 4-Chloro-5-n-propyl-1-[2′-(1H-tetrazol-5-yl)biphenyl-4-yl-methyl]-2-pyrrolaldehyde]",IC50,AT1 receptor; [3],615 nM
same,melting point,,150 °C
"CCCCC(=O)N(Cc1ccc(-c2ccccc2-c2nnn[nH]2)cc1)[C@H](C(=O)O)C(C)C [Valsartan, valsartan, reference compound]",IC50,AT1 receptor; [3],3.4 nM
same,Max. effect at 15 mg/kg (% reduction vs. basal),[1],14.4 % reduction vs. basal
same,ED15 (0-120 min),[1],26.2 mg/kg
same,Max. effect at 15 mg/kg (% reduction vs. basal),[2],19.0 % reduction vs. basal
same,ED15 (0-120 min),[2],16.0 mg/kg
same,"Papp A→B at 60 min, 50 μM",in vitro,0.2 ×10⁻⁶ cm/s
same,"Papp B→A at 40 min, 50 μM",in vitro,0.2 ×10⁻⁶ cm/s
same,Ratio (1/2),TC7 cell monolayer,1.0
"CCCCc1ncc(/C=C(\Cc2cccs2)C(=O)O)n1Cc1ccc(C(=O)O)cc1 [Eprosartan, eprosartan, reference compound]",Max. effect at 15 mg/kg (% reduction vs. basal),[1],5.0 % reduction vs. basal
same,Max. effect at 15 mg/kg (% reduction vs. basal),[2],9.2 % reduction vs. basal
same,"Papp A→B at 60 min, 50 μM",in vitro,0.1 ×10⁻⁶ cm/s
same,"Papp B→A at 40 min, 50 μM",in vitro,0.4 ×10⁻⁶ cm/s
"CCCCc1ccc(C(=O)O)n1Cc1ccc(-c2ccccc2-c2nnn[nH]2)cc1 [Compound 12, 5-n-Butyl-1-[2′-(1H-tetrazol-5-yl)biphenyl-4-yl-methyl]-2-pyrrolecarboxylic acid]",IC50,AT1 receptor; [3],268 nM
same,melting point,,142 °C
"CCCc1ccc(C(=O)O)n1Cc1ccc(-c2ccccc2-c2nnn[nH]2)cc1 [Compound 10, 5-n-Propyl-1-[2′-(1H-tetrazol-5-yl)biphenyl-4-yl-methyl]-2-pyrrolecarboxylic acid]",IC50,AT1 receptor; [3],475 nM
same,melting point,,134 °C
"CCCc1cc(C(C)C)c(C)n1Cc1ccc(-c2ccccc2-c2nnn[nH]2)cc1 [Compound 15, 2-Methyl-5-n-propyl-3-isopropyl-1-[2′-(1H-tetrazol-5-yl)biphenyl-4-yl-methyl]pyrrole]",IC50,AT1 receptor; [3],1190 nM
same,melting point,,160 °C
"CCCCc1ccc(C=O)n1Cc1ccc(-c2ccccc2-c2nnn[nH]2)cc1 [Compound 7, 5-n-Butyl-1-[2′-(1H-tetrazol-5-yl)biphenyl-4-yl-methyl]-2-pyrrolaldehyde]",IC50,AT1 receptor; [3],66.5 nM
same,melting point,,129 °C
"Cc1ccc(C)n1Cc1ccc(-c2ccccc2-c2nnn[nH]2)cc1 [Compound 14, 2,5-Dimethyl-1-[2′-(1H-tetrazol-5-yl)biphenyl-4-yl-methyl]pyrrole]",IC50,AT1 receptor; [3],10700 nM
same,melting point,,107 °C
CCCc1ccc(CO)n1Cc1ccc(-c2ccccc2-c2nnn[nH]2)cc1 [Compound 13],IC50,AT1 receptor; [3],444 nM
"CCCCc1nc(Cl)c(CO)n1Cc1ccc(-c2ccccc2-c2nn[nH]n2)cc1 [Losartan, losartan]",Max. effect at 15 mg/kg (% reduction vs. basal),[1],12.0 % reduction vs. basal
same,ED15 (0-120 min),[1],25.4 mg/kg
same,Max. effect at 15 mg/kg (% reduction vs. basal),[2],18.9 % reduction vs. basal
same,ED15 (0-120 min),[2],16.4 mg/kg
"CCCCc1cc(CC(C)C)c(C=O)n1Cc1ccc(-c2ccccc2-c2nnn[nH]2)cc1 [Compound 1, 5-n-Butyl-1-[2′-(1H-tetrazol-5-yl)biphenyl-4-yl-methyl]-3-[3-(2-methyl)propyl]-2-pyrrolaldehyde]",times more potent than the BPT-pyrrole derivative of EP-0323841,AT1 receptor; 8.9 nM vs. 1.6 μM of compound 277 of EP 0 323 841,approx. 200 times
same,IC50,AT1 receptor; AT1 binding,8.9 nM
same,times less potent than valsartan and eprosartan in vitro,AT1 receptor; respectively vs. valsartan and eprosartan,approx. ⅗
same,Max. effect at 15 mg/kg (% reduction vs. basal),[1],16.0 % reduction vs. basal
same,ED15 (0-120 min),[1],17.4 mg/kg
same,Max. effect at 15 mg/kg (% reduction vs. basal),[2],22.1 % reduction vs. basal
same,ED15 (0-120 min),[2],12.6 mg/kg
same,"Papp A→B at 60 min, 50 μM",in vitro,27.9 ×10⁻⁶ cm/s
same,"Papp B→A at 40 min, 50 μM",in vitro,3.4 ×10⁻⁶ cm/s
same,Ratio (1/2),TC7 cell monolayer,8.2
same,melting point,,148 °C
"CCCc1cc(C(C)C)c(C=O)n1Cc1ccc(-c2ccccc2-c2nnn[nH]2)cc1 [Compound 5, 5-n-Propyl-3-isopropyl-1-[2′-(1H-tetrazol-5-yl)biphenyl-4-yl-methyl]-2-pyrrolaldehyde]",IC50,AT1 receptor; [3],35.7 nM
same,melting point,,180 °C
"CCCc1ccc(C=O)n1Cc1ccc(-c2ccccc2-c2nnn[nH]2)cc1 [Compound 2, 5-n-Propyl-1-[2′-(1H-tetrazol-5-yl)biphenyl-4-yl-methyl]-2-pyrrolaldehyde]",IC50,AT1 receptor; [3],72.5 nM
same,melting point,,104 °C
"CCCCc1cc(C(C)C)c(C=O)n1Cc1ccc(-c2ccccc2-c2nnn[nH]2)cc1 [Compound 6, 5-n-Butyl-3-isopropyl-1-[2′-(1H-tetrazol-5-yl)biphenyl-4-yl-methyl]-2-pyrrolaldehyde]",IC50,AT1 receptor; [3],15.3 nM
same,Max. effect at 15 mg/kg (% reduction vs. basal),[1],13.2 % reduction vs. basal
same,ED15 (0-120 min),[1],19.3 mg/kg
same,Max. effect at 15 mg/kg (% reduction vs. basal),[2],18.7 % reduction vs. basal
same,ED15 (0-120 min),[2],16.0 mg/kg
same,"Papp A→B at 60 min, 50 μM",in vitro,15.4 ×10⁻⁶ cm/s
same,"Papp B→A at 40 min, 50 μM",in vitro,1 ×10⁻⁶ cm/s
same,Ratio (1/2),TC7 cell monolayer,15.4
same,melting point,,174 °C
"CCCc1c(Br)cc(C=O)n1Cc1ccc(-c2ccccc2-c2nnn[nH]2)cc1 [Compound 3, 4-Bromo-5-n-propyl-1-[2′-(1H-tetrazol-5-yl)biphenyl-4-yl-methyl]-2-pyrrolaldehyde]",IC50,AT1 receptor; [3],1050 nM
same,melting point,,167 °C
"CCCCCc1cc(C(C)C)c(C=O)n1Cc1ccc(-c2ccccc2-c2nnn[nH]2)cc1 [Compound 8, 5-n-Pentyl-3-isopropyl-1-[2′-(1H-tetrazol-5-yl)biphenyl-4-yl-methyl]-2-pyrrolaldehyde]",IC50,AT1 receptor; [3],105 nM
same,melting point,,144 °C
